What is called inhibition is the relative decrease from the control value, in per cent.

In one experiment the test system is interleukin 10 (IL-10). Put plainly: IL-10 in supernatants of peripheral blood mononuclear cells with or without RSV (Example 39). Type of experiment: cell-based, human. The settings on record: in the presence or absence of RSV; FIGS. 7-10. The protocol:
Specifically, either 3′SL or 6′SL is added, at concentrations of 0.1 mg/mL, 0.2 mg/mL, or 0.5 mg/mL to fresh peripheral blood mononuclear cells and incubated at 37° C. in 5% CO2 to pretreat the cells for approximately 24 hours. LNnT is added, at concentrations of 0.1 mg/mL, 0.2 mg/mL, or 1 mg/mL to fresh peripheral blood mononuclear cells and incubated at 37° C. in 5% CO2 to pretreat the cells for approximately 24 hours. Lactose is included as a carbohydrate control. Matched endotoxin unit concentration controls are included to allow differentiation of ingredient effects from inherent low levels of endotoxin. Some variables are then incubated with RSV at a multiplicity of infection (MOI) of 0.1 for approximately 1 hour at 37° C. in 5% in CO2. Uninfected control variables are incubated with medium for approximately 1 hour at 37° C. in 5% CO2. […]
Cytokines are measured in supernatants for each variable at 24 and 48 hours to assess the effects of HMOs on the early immune response to RSV. Cytokines are measured using custom Bio-Plex Human cytokine kits from Bio-Rad. […] A positive con-elation exists between RSV clinical disease severity in children (as measured by: length of hospital stay, fever, and number of days supplemental O2 is required) and serum IP-10. […]

Experiment [1] concerns respiratory syncytial virus (RSV). Nature of the experiment: In vitro inhibition of viral infectivity by purified HMOs (Example 36), RSV. The settings on record: co-incubation of virus (about 500 to 1,000 units/mL) with HMO at 1 or 10 mg/mL. The experiment is classed as cell-based. The protocol:
In this Example, the effect of purified human milk oligosaccharides (HMO) on in vitro inhibition of viral infectivity is analyzed.
Samples are prepared by co-incubation of a uniform virus dose of from about 500 units/mL to about 1,000 units/mL of one of three respiratory viruses: (1) respiratory syncytial virus (RSV); (2) human parainfluenza virus (HPIV3); or (3) H1N1 influenza virus with one of the following HMOs: (1) 3′-sialyllactose (3′SL); (2) 6′-sialyllactose (6′SL); (3) 3′-fucosyllactose (3′FL); (4) 2′-fucosyllactose (2′FL); (5) lacto-N-neotetraose (LNnT); or (6) sialic acid (SA). The HMOs are added at concentrations of either 1 mg/mL or 10 mg/mL.

For experiment [2], the system named is interferon-inducible protein 10 (IP-10). Put plainly: IP-10 in supernatants of RSV-infected peripheral blood mononuclear cells pretreated with HMO (Example 39). The experiment is classed as cell-based, human. The settings on record: for IP-10 in virus-infected variables: PBMC of two donors, 24 h pretreatment, RSV MOI 0.1, supernatants at 24 and 48 hours, FIGS. 3-6; for IP-10 level reached relative to uninfected controls: RSV-infected PBMC; for dampening of virus-induced inflammation as measured by a decrease in IP-10, comparison: compared with 3′SL; for reduction of inflammation caused by RSV: pretreatment for 24 hours. The protocol: (§1) Specifically, either 3′SL or 6′SL is added, at concentrations of 0.1 mg/mL, 0.2 mg/mL, or 0.5 mg/mL to fresh peripheral blood mononuclear cells and incubated at 37° C. in 5% CO2 to pretreat the cells for approximately 24 hours. LNnT is added, at concentrations of 0.1 mg/mL, 0.2 mg/mL, or 1 mg/mL to fresh peripheral blood mononuclear cells and incubated at 37° C. in 5% CO2 to pretreat the cells for approximately 24 hours. Lactose is included as a carbohydrate control. Matched endotoxin unit concentration controls are included to allow differentiation of ingredient effects from inherent low levels of endotoxin. Some variables are then incubated with RSV at a multiplicity of infection (MOI) of 0.1 for approximately 1 hour at 37° C. in 5% in CO2. Uninfected control variables are incubated with medium for approximately 1 hour at 37° C. in 5% CO2. After approximately one hour, fresh medium alone, or fresh medium containing the appropriate concentration of 3′SL, 6′SL, LNnT, lactose, or endotoxin is added to the appropriate tubes and the cells are incubated for 48 hours at 37° C. in 5% CO2. Supernatants are collected at 24 and 48 hours post-infection.
(§2) Cytokines are measured in supernatants for each variable at 24 and 48 hours to assess the effects of HMOs on the early immune response to RSV. Cytokines are measured using custom Bio-Plex Human cytokine kits from Bio-Rad. Results for interferon-inducible protein 10 (IP-10, also known as CXCL 10) are shown in FIGS. 3 and 4 for 3′SL and 6′SL, and in FIGS. 5 and 6 for LNnT. IP-10 is a CXC chemokine that attracts, binds to and activates the CXCR3 receptor on natural killer cells and memory T cells. IP-10 is expressed by monocytes and a number of other cells, and is induced by interferon. A positive con-elation exists between RSV clinical disease severity in children (as measured by: length of hospital stay, fever, and number of days supplemental O2 is required) and serum IP-10. Therefore, a decrease in IP-10 signals a decrease in severity of RSV disease experienced.

Experiment [3] deals with H1N1 influenza virus. Type of experiment: cell-based. Particulars: for IC50 (mg HMO/mL) H1N1 Influenza: co-incubation of virus (about 500 to 1,000 units/mL) with HMO at 1 or 10 mg/mL.
The subject of experiment [4] is monocyte-derived cytokines. Put plainly: Monocyte-derived cytokines in peripheral blood mononuclear cells with or without RSV (Example 39). The experiment is classed as cell-based, human. Particulars: PBMC. The protocol:
as §1, §2

The test system of experiment [5] is human parainfluenza virus (HPIV3). Type of experiment: cell-based. Particulars: co-incubation of virus (about 500 to 1,000 units/mL) with HMO at 1 or 10 mg/mL.
Experiment [6] concerns H1N1 influenza virus. Put plainly: microbe, parasite or virus in culture. Type of experiment: cell-based. Particulars: HMO at 10 mg/mL, MDCK cells, FIG. 1.

A value given as a limit tells only on which side of the number the result lay.

As for `CC(=O)N[C@H]1[C@H](O[C@H]2[C@@H](O)[C@@H](CO)O[C@@H](O[C@H]3[C@H](O)[C@@H](O)C(O)O[C@@H]3CO)[C@@H]2O)O[C@H](CO)[C@@H](O[C@@H]2O[C@H](CO)[C@H](O)[C@H](O)[C@H]2O)[C@@H]1O` (mixture of isomers) [LNnT, lacto-N-neotetraose], in the experiment on interleukin 10 (IL-10), the IL-10 concentration result is “increases IL-10 concentration in a dose-dependent manner”. In addition, the “IC50 (mg HMO/mL) RSV” value in experiment [1] was above 10 mg HMO/mL. In experiment [2], the “IP-10 in virus-infected variables” value is “clearly downregulates IP-10”; the “IP-10 level reached relative to uninfected controls” value is given as “reduce IP-10 to levels found in uninfected controls”; the “dampening of virus-induced inflammation as measured by a decrease in IP-10, comparison” value was “more effective than 3′SL”; the “reduction of inflammation caused by RSV” value was “effective in reducing inflammation caused by RSV”. In the experiment with H1N1 influenza virus [3], the “IC50 (mg HMO/mL) H1N1 Influenza” value is given as above 10 mg HMO/mL. Also, the “production of monocyte-derived cytokines (IL-10, MIP-1β, Interferon-γ, IL-8, IL-1α, IL-1β, IL-1ra)” value (“production of monocyte-derived cytokines” for short) in experiment [4] is “immunomodulatory in the presence or absence of the virus”.

As to `CC(=O)N[C@H]1[C@H]([C@H](O)[C@H](O)CO)O[C@@](O[C@H]2[C@@H](O)[C@@H](CO)O[C@@H](O[C@H]3[C@H](O)[C@@H](O)C(O)O[C@@H]3CO)[C@@H]2O)(C(=O)O)C[C@@H]1O` (stereo partly shown) [3′SL, 3′-sialyllactose], in experiment [1], the “IC50 (mg HMO/mL) RSV” value was above 10 mg HMO/mL. Also, the “RSV-induced IP-10, Donor B” value in experiment [2] (Donor B, 0.1, 0.2 or 0.5 mg/mL) is “not effective”. Also, in experiment [2] (Donor E, 0.1, 0.2 or 0.5 mg/mL), the “RSV-induced IP-10, Donor E” value was “downregulates RSV-induced IP-10”. Moreover, in experiment [2], the “IP-10 in virus-infected variables” value is reported as “dampen RSV-induced IP-10” and the “reduction of inflammation caused by RSV” value is given as “effective in reducing inflammation caused by RSV”. Also, the “anti-viral activity against H1N1 influenza virus” value in the experiment on H1N1 influenza virus [3] (HMO at 1 mg/mL) is listed as “inhibited”. Also, the “IC50 (mg HMO/mL) H1N1 Influenza” value with H1N1 influenza virus [3] is given as around 5 mg HMO/mL. In addition, the “IC50 (mg HMO/mL) HPIV3” value in experiment [5] is recorded as above 10 mg HMO/mL. The “production of monocyte-derived cytokines” value in experiment [4] is “immunomodulatory in the presence or absence of the virus”.

On to `CC(=O)N[C@H]1[C@H]([C@H](O)[C@H](O)CO)O[C@@](OC[C@H]2O[C@@H](O[C@H]3[C@H](O)[C@@H](O)[C@H](O)O[C@@H]3CO)[C@H](O)[C@@H](O)[C@H]2O)(C(=O)O)C[C@@H]1O` [6′SL, 6′-sialyllactose], for which the IL-10 concentration entry in the experiment on interleukin 10 (IL-10) is “increases interleukin 10 (IL-10) concentration in a dose-dependent manner”. For the same compound, the “IC50 (mg HMO/mL) RSV” value in experiment [1] is reported as above 10 mg HMO/mL. In addition, in experiment [2], the “IP-10 in virus-infected variables” value is reported as “clearly downregulates IP-10”; the “IP-10 level reached relative to uninfected controls” value was “reduce IP-10 to levels found in uninfected controls”; the “dampening of virus-induced inflammation as measured by a decrease in IP-10, comparison” value is “more effective than 3′SL”; the “reduction of inflammation caused by RSV” value is listed as “effective in reducing inflammation caused by RSV”. Moreover, the “IC50 (mg HMO/mL) H1N1 Influenza” value with H1N1 influenza virus [3] is reported as around 10 mg HMO/mL. In experiment [5], the “IC50 (mg HMO/mL) HPIV3” value is above 10 mg HMO/mL. In addition, in the experiment with H1N1 influenza virus [6], the “inhibition of H1N1 virus infectivity” value was “approximately 60%”. The “production of monocyte-derived cytokines” value in experiment [4] is reported as “immunomodulatory in the absence of the virus”.

Regarding `CC(=O)N[C@H]1[C@H]([C@H](O)[C@H](O)CO)OC(O)(C(=O)O)C[C@@H]1O` (stereo partly shown) [SA, sialic acid], the inhibition at 10000 µg/mL with H1N1 influenza virus [6] (Influenza A virus, H1N1, read-out: inhibition of H1N1 virus infectivity) was above 90%.

For the origin of these results see patent US11464793B2, “Nutritional formulations including human milk oligosaccharides and antioxidants and uses thereof” (priority 2010, dated 2022).
